According to ChEMBL document CHEMBL1151435, “Antileishmanial structure-activity relationships of synthetic phospholipids: in vitro and in vivo activities of selected derivatives” (Antimicrob Agents Chemother, 2007):

Tests used:
Leishmania donovani [1] = assay: Antileishmanial activity against intracellular Leishmania donovani MHOM/ET/67/HU3 amastigotes infected in peritoneal macrophages of Mesocricetus auratus by drug sensitivity assay; type: functional, organism-based
Leishmania donovani [2] = assay: Activity ratio of compound EC50 to miltefosine EC50 for intracellular Leishmania donovani MHOM/ET/67/HU3 amastigotes infected in peritoneal macrophages of Mesocricetus auratus; type: functional
Leishmania donovani [3] = assay: Antileishmanial activity against Leishmania donovani MHOM/ET/67/HU3 promastigotes by drug sensitivity assay; type: functional, organism-based
[4] = Therapeutic index, ratio of EC50 for human KB cells to EC50 for intracellular Leishmania donovani MHOM/ET/67/HU3 amastigotes infected in peritoneal macrophages of Mesocricetus auratus; type: cell-based; conditions: read-out: TI
Leishmania donovani [5] = assay: Antileishmanial activity against Leishmania donovani MHOM/ET/67/HU3 amastigotes infected in po dosed BALB/c mouse model administered one week after infection for 5 consecutive days measured after 3 days of last dose by Giemsa staining; type: functional; conditions: for ED50: MHOM/ET/67/HU3, po
[6] = Therapeutic index, ratio of EC50 for human THP1 cells to EC50 for intracellular Leishmania donovani MHOM/ET/67/HU3 amastigotes infected in peritoneal macrophages of Mesocricetus auratus; type: cell-based, THP-1; conditions: read-out: TI
Leishmania donovani [7] = assay: Antileishmanial activity against Leishmania donovani MHOM/ET/67/L82 infected in po dosed BALB/c mouse model; type: functional; conditions: MHOM/ET/67/L82, po
Leishmania donovani [8] = assay: Antileishmanial activity against Leishmania donovani MHOM/ET/67/HU3 amastigotes infected in ip dosed BALB/c mouse model administered one week after infection for 5 consecutive days measured after 3 days of last dose by Giemsa staining; type: functional; conditions: MHOM/ET/67/HU3, ip
[9] = Solubility at phosphate-buffered saline of pH 7.4; type: physicochemical; conditions: buffer
Leishmania donovani [10] = assay: Antileishmanial activity against Leishmania donovani MHOM/ET/67/HU3 amastigotes infected in ip dosed BALB/c mouse model administered as suspension one week after infection for 5 consecutive days measured after 3 days of last dose by Giemsa staining; type: functional; conditions: MHOM/ET/67/HU3, ip

EC50 (Leishmania donovani [1]) [µM]	EC50 (Leishmania donovani [3]) [µM]	Compound	Ratio EC50 (Leishmania donovani [2])	further results
0.25	3.61	CCCCCCCCCCCCCCCCCCSCC(COC)COP(=O)([O-])OCC[N+]1(C)CCCCC1.O (configuration not stated)	0.07	–
0.55	–	CCCCCCCCCCCCCCCCOP(=O)([O-])OCC[N+]12CCC(CC1)CC2.O	0.16	–
1.37	3.06	CCCCCCCCCCCCCCCCCCOP(=O)([O-])OCC[N+]1(C)CCC(O)CC1 (configuration not stated)	0.41	–
0.58	–	CCCCCCCCCCCCCCCCOP(=O)([O-])OCC[N+](C)(C)c1ccccc1.O	0.11	–
0.4	–	CCCCCCCCCCCCCCCCCCOP(=O)([O-])OC1CC[N+](CC)(CC)CC1.O.O	0.12	selectivity ratio [4]: 6.89; ED50 (Leishmania donovani [5]): 35.3 mg/kg; selectivity ratio [6]: 11.7
1.32	–	CCCCCCCCCCCCCCCCOCCOCCOCCOCCOCCOCCOCCOCCOCCOCCOP(=O)([O-])OC1CC[N+](C)(C)CC1	0.4	–
2.64	1.52	CCCCCCCCCCCCCCCCCCOP(=O)([O-])OCC[N+](C)(C)C1CC1.O	0.5	–
0.82	–	CCCCCCCCCCCCCCCCCCOP(=O)([O-])OCCC1CC[N+](C)(Cc2ccccc2)CC1.O.O (configuration not stated)	0.25	–
0.4	–	CCCCCCCCCCCCCCCCCCOP(=O)([O-])OC1CC[N+](C)(Cc2ccccc2)CC1.O (configuration not stated)	0.12	–
0.94	–	CCCCCCCCCCCCCCCCCCOP(=O)([O-])OCC[N+]1(C)CCOCC1	0.18	–
0.76	–	CCCCCCCCCCCCCCCCCCOP(=O)([O-])OCCC1CC[N+](Cc2ccccc2)(Cc2ccccc2)CC1.O	0.23	–
0.71	–	CCCCCCCCCCCCCCCCCCOP(=O)([O-])OC1CC2CCC(C1)[N+]2(C)C (configuration not stated)	0.13	–
1.68	1.79	CCCCCCCCCCCCCCCCCCOCC(COP(=O)([O-])OCC[N+]1(C)CCCCC1)OC (configuration not stated)	0.32	–
–	3.06	CCCCCCCCCCCCCCCCCCOP(=O)([O-])OC1CC[N+]2(CCCC2)CC1	–	–
1.19	–	CCCCCCCCCCCCCCCCCCOP(=O)([O-])OCC[N+](C)(C)C1CCCCC1.O	0.22	–
–	1.09	CCCCCCCCC(Br)C(Br)CCCCCCCCOP(=O)([O-])OCC[N+](C)(C)C (configuration not stated)	–	–
2.46	–	CCCCCCCCCCCCCCCCOP(=O)([O-])OCC[N+]1(C)CCOCC1.O	0.46	–

EC50 (Leishmania donovani [1]) [µM]	EC50 (Leishmania donovani [3]) [µM]	Compound	Ratio EC50 (Leishmania donovani [2])	further results
–	3.02	CCCCCCCCCCCCCCCCCCOP(=O)([O-])OC1CC[N+](C)(C)CC1 [PERIFOSINE]	0.63	ED50 (Leishmania donovani [7]): 25.2 mg/kg
–	2.04	CCCCCCCCCCCCCCCCCCOP(=O)([O-])OCC[N+](C)(C)CC	–	–
0.99	–	CCCCCCCCCCCCCCCCOP(=O)([O-])OC1CC[N+](C)(CCc2ccccc2)CC1.O.O (configuration not stated)	0.49	–
0.3	–	CCCCCCCCCCCCCCCCOP(=O)([O-])OCC[N+]1(C)CCCCC1	0.09	selectivity ratio [4]: 23.4; Activity (Leishmania donovani [5]): Dose-dependent effect; ED50 (Leishmania donovani [5]): 25.5 mg/kg; selectivity ratio [6]: 95.7
–	1.69	CCCCCCCCCCCCCCCCCCOCC(COP(=O)([O-])OC1CC2CCC(C1)[N+]2(C)C)OC (configuration not stated)	–	–
–	1.29	CCCCCCCCCCCCCCCCCCCOP(=O)([O-])OCC[N+]1(C)CCCCC1	–	–
–	3.35	CCCCCCCCCCCCCCCCCC(C)OP(=O)([O-])OCC[N+](C)(C)C (configuration not stated)	–	–
–	2.4	CCCCCCCCCCCCCCCCCCOP(=O)([O-])OCC[N+](C)(C)C [OCTADECYLPHOSPHONOCHOLINE]	–	–
2.04	5.7	CCCCCCCCCCCCCCCCOP(=O)([O-])OCC[N+](C)(C)C [MILTEFOSINE]	–	selectivity ratio [4]: 0.83; ED50 (Leishmania donovani [5]): 8.09 mg/kg; ED50 (Leishmania donovani [8]): 7.72 mg/kg; selectivity ratio [6]: 5.48; ED50 (Leishmania donovani [7]): 10 mg/kg
1.22	2.37	CCCCCCCCCCCCCCCCCCOP(=O)([O-])OCC[N+]1(C)CCSCC1.O	0.23	–
–	2.71	CCCCCCCCCCCCCCCCCCOP(=O)([O-])OC1CC[N+](C)(CC)CC1 (configuration not stated)	–	–
–	1.55	CCCCCCCCCCCCCCCCOCCCOP(=O)([O-])OCC[N+](C)(C)C	–	–
0.41	–	CCCCCCCCCCCCCCCCOP(=O)([O-])OC1CC[N+](C)(Cc2ccccc2)CC1 (configuration not stated)	0.12	solubility [9]: Soluble; selectivity ratio [4]: 179; selectivity ratio [6]: > 220; ED50 (Leishmania donovani [10]): 33 mg/kg
–	3.58	CCCCCCCCCCCCCCCCOCC(COP(=O)([O-])OCC[N+](C)(C)C)OC (configuration not stated)	–	–
–	3.36	CCCCCCCCCCCCCCCCCCOCCOCCOP(=O)([O-])OCC[N+]1(C)CCCC1	–	–
0.43	–	CCCCCCCCCCCCCCCCCCOP(=O)([O-])OC1CCC[N+](C)(C)C1 (configuration not stated)	0.13	–
